The source made the active and inactive calls. The rule behind the calls is not given here.
What was measured:
Human alphaherpesvirus 1 [1] = experiment: Antiviral activity against HSV1 expressing GFP infected in African green monkey Vero cells assessed as fold reduction in viral titer green fluorescence protein expression measured after 48 hrs post-infection by immunofluorescence based fluorescence microscopy; format: functional
Human alphaherpesvirus 1 [2] = experiment: Antiviral activity against HSV1 expressing GFP infected in African green monkey Vero cells assessed as fold reduction in viral titer green fluorescence protein expression at 2 uM measured after 48 hrs post-infection by immunofluorescence based fluorescence microscopy; format: functional
[3] = Selectivity index, ratio of CC50 for Cytotoxicity against african green monkey Vero cells to IC50 for Antiviral activity against HSV1 infected in African green monkey Vero cells; format: toxicity, cell-based; conditions: read-out: Selectivity Index
Human alphaherpesvirus 1 [4] = experiment: Antiviral activity against ACV-resistant HSV1 153 infected in African green monkey Vero cells assessed as reduction of virus-induced cytopathic effect measured after 48 hrs of incubation; format: functional, organism-based; conditions: Human alphaherpesvirus 1, 153, Vero
Human alphaherpesvirus 1 [5] = experiment: Antiviral activity against HSV1 infected in African green monkey Vero cells assessed as reduction of virus-induced cytopathic effect measured after 48 hrs of incubation; format: functional, organism-based; conditions: Human alphaherpesvirus 1, Vero
Human alphaherpesvirus 1 [6] = experiment: Antiviral activity against ACV-resistant HSV1 Blue infected in African green monkey Vero cells assessed as reduction of virus-induced cytopathic effect measured after 48 hrs of incubation; format: functional, organism-based; conditions: Human alphaherpesvirus 1, Blue
[7] = Cytotoxicity against African green monkey Vero cells assessed as cell viability measured after 24 hrs incubation by MTT assay; format: toxicity, cell-based; conditions: chlorocebus sabaeus
Human alphaherpesvirus 1 [8] = experiment: Antiviral activity against HSV1 infected in African green monkey Vero cells assessed as reduction of virus yield at 2 uM treated for 0 to 14 hrs of post-infection; format: functional, organism-based; conditions: time 0-14 hrs
Human alphaherpesvirus 1 [9] = experiment: Antiviral activity against HSV1 infected in African green monkey Vero cells assessed as inhibition of virus replication at 2 uM treated 8 hrs of post-infection; format: functional, organism-based
Human alphaherpesvirus 1 [10] = experiment: Antiviral activity against HSV1 expressing GFP infected in African green monkey Vero cells assessed as suppression of infection at 50 times of IC50 concentration measured after 48 hrs post-infection; format: functional, organism-based
Vero [11] = experiment: Inhibition of CDK9/Cyclin T1 in African green monkey Vero cells infected with HSV1 assessed as catalytic hydrolysis of ATP measured after 12 hrs by Western blot analysis; format: cell-based; conditions: Chlorocebus aethiops
Vero [12] = experiment: Inhibition of CDK7/Cyclin T1 in African green monkey Vero cells infected with HSV1 assessed as catalytic hydrolysis of ATP measured after 12 hrs by Western blot analysis; format: cell-based; conditions: Chlorocebus aethiops
Vero [13] = experiment: Suppression of phosphorylation of RNA polymerase at serine 2 C-terminal domain in HSV1 infected African green monkey Vero cells at 0.25 to 2 uM measured after 12 hrs incubation by Western blot analysis; format: cell-based; conditions: Human alphaherpesvirus 1, dose 0.25-2 µM
Human alphaherpesvirus 1 [14] = experiment: In vivo antiviral activity against HSV1 infected in BALB/c mouse right ear by scratch assessed as reduction in skin lesions at 10 to 20 mg/kg, applied topically measured for 5 to 9 days post-infection; format: functional, organism-based; conditions: dose 10-20 mg/kg, time 5-9 day
Human alphaherpesvirus 1 [15] = experiment: In vivo antiviral activity against HSV1 infected in BALB/c mouse right ear by scratch assessed as increase in body weight at 10 to 20 mg/kg, applied topically measured for 5 to 9 days post-infection relative to control; format: functional, organism-based; conditions: dose 10-20 mg/kg, time 5-9 day
[16] = Toxicity in BALB/c mouse assessed as toxic side effects at 10 to 20 mg/kg, applied topically measured for 5 to 9 days post-infection; format: organism-based; conditions: in vivo, topical_or_ocular, dose lower 10 mg/kg, time lower 5 day, dose upper 20 mg/kg, time upper 9 day
Human alphaherpesvirus 1 [17] = experiment: In vivo antiviral activity against HSV1 infected in BALB/c mouse right ear by scratch assessed as reduction in viral titer in ear tissue homogenate at 10 to 20 mg/kg, applied topically measured for 5 to 9 days post-infection; format: functional, organism-based; conditions: dose 10-20 mg/kg, time 5-9 day
Human alphaherpesvirus 1 [18] = experiment: In vivo antiviral activity against HSV1 infected in BALB/c mouse right ear by scratch assessed as reduction in gD glycoprotein level at 10 to 20 mg/kg, applied topically measured for 5 to 9 days post-infection; format: functional, organism-based; conditions: dose 10-20 mg/kg, time 5-9 day
Human alphaherpesvirus 2 = experiment: Antiviral activity against HSV2 infected in African green monkey Vero cells assessed as reduction of virus-induced cytopathic effect measured after 48 hrs of incubation; format: functional, organism-based; conditions: Human alphaherpesvirus 2, Vero
Human alphaherpesvirus 1 [19] = experiment: Antiviral activity against HSV1 infected in African green monkey Vero cells assessed as inhibition of transcription by measuring viral gene level at 0.25 to 2 uM by RT-PCR analysis relative to control; format: functional, organism-based; conditions: dose 0.25-2 µM
Human alphaherpesvirus 1 [20] = experiment: In vivo antiviral activity against HSV1 infected in BALB/c mouse right ear by scratch assessed as reduction in ear thickness at 10 to 20 mg/kg, applied topically measured for 5 to 9 days post-infection; format: functional, organism-based; conditions: dose 10-20 mg/kg, time 5-9 day
Vero [21] = experiment: Suppression of phosphorylation of RNA polymerase at serine 5 C-terminal domain in HSV1 infected African green monkey Vero cells measured after 12 hrs incubation by Western blot analysis; format: cell-based; conditions: Human alphaherpesvirus 1, dose 0.25-2 µM
Human alphaherpesvirus 1 [22] = experiment: Antiviral activity against HSV1 expressing GFP infected in African green monkey Vero cells assessed as reduction in green fluorescence protein expression at 1 uM measured after 24 hrs post-infection by immunofluorescence based fluorescence microscopy; format: functional, organism-based

| SMILES | selectivity ratio [3] | IC50 (Human alphaherpesvirus 1 [4]) [nM] | IC50 (Human alphaherpesvirus 1 [5]) [nM] | IC50 (Human alphaherpesvirus 1 [6]) [nM] | CC50 at 24 h [7] [nM] | Activity (Human alphaherpesvirus 1 [8]) | other results |
| --- | --- | --- | --- | --- | --- | --- | --- |
| CC(C)CC1C2=C(Oc3cc(O)c(C(=O)C4CCC4)c(O)c31)C(C)(C)C(=O)C(C)(C)C2=O (centres undefined) | 26 | 300 | 500 | 250 | 13000 | Active | Activity (Human alphaherpesvirus 1 [1]): Dose-dependent-effect; fold change (FC) (Human alphaherpesvirus 1 [2]): 1867 |
| Nc1nc2c(ncn2COCCO)c(=O)[nH]1 [ACYCLOVIR] | > 80 | > 100000 | 1200 | > 100000 | > 100000 |  | Activity (Human alphaherpesvirus 1 [9]): Active; Activity (Human alphaherpesvirus 1 [10]): inactive |
| CC(C)(C)c1cnc(CSc2cnc(NC(=O)C3CCNCC3)s2)o1 |  |  |  |  |  |  | Activity (Vero [11]): Active; Activity (Vero [12]): Active; Activity (Vero [13]): Active |
| CC(C)CC(=O)c1c(O)c(Cl)c2c(c1O)C(CC(C)C)C1=C(O2)C(C)(C)C(=O)C(C)(C)C1=O (centres undefined) | 35 | 400 | 400 | 300 | 14000 |  | Activity (Human alphaherpesvirus 1 [1]): Dose-dependent-effect; fold change (FC) (Human alphaherpesvirus 1 [2]): 3549 |
| CC(C)CC(=O)c1c(O)cc2c(c1O)[C@@H](CC(C)C)C1=C(O2)C(C)(C)[C@@H](O)C(C)(C)C1=O | < 6.67 |  | 3750 |  | 10000 | Active |  |
| CC(C)CC(=O)c1c(O)cc2c(c1O)C(CC(C)C)C1=C(O2)C(C)(C)C(=O)C(C)(C)C1=O (racemic) | 17.9 | 300 | 390 | 300 | 7000 | Active | fold change (FC) (Human alphaherpesvirus 1 [1]): 3943; Activity (Human alphaherpesvirus 1 [14]): Active; Activity (Human alphaherpesvirus 1 [2]): Active; Activity (Human alphaherpesvirus 1 [15]): Active; Activity [16]: Non-toxic; Activity (Human alphaherpesvirus 1 [17]): Active; Activity (Human alphaherpesvirus 1 [18]): Active; IC50 (Human alphaherpesvirus 2): 350 nM; Activity (Human alphaherpesvirus 1 [19]): Active; Activity (Vero [12]): inactive; Activity (Vero [13]): Active; Compound Showed Only Slight Inhibition; Activity (Human alphaherpesvirus 1 [20]): Active; Activity (Vero [21]): Dose-dependent-effect; Activity (Human alphaherpesvirus 1 [22]): Active |
| CC(C)CC(=O)c1c(O)cc2c(c1O)C(Cc1ccccc1)C1=C(O2)C(C)(C)C(=O)C(C)(C)C1=O (centres undefined) | 21.7 | 600 | 600 | 600 | 13000 |  |  |
